# Measurements: patent US9801383B2, “Synergistic pesticidal compositions and related methods” (priority 2013, dated 2017)
# Experiments:
# Assay type in all cases: in vivo
# [1] = system: brown stink bug, Euschistus heros; assay: Bean piece dip bioassay against brown stink bug; conditions: single active
# Procedure: (§1) The active compositions were formulated in a 10% acetone solution with 0.025% non-ionic surfactant, TWEEN® 20. Bean pieces (about one inch-long) were used for the tests. Four bean pieces were placed in each tested active solution and left there for 10 minutes. Bean pieces were taken out of the active solution, and each piece was placed in a well in a 32-well tray and allowed to air dry. Three third-instar nymphs of brown stink bug, Euschistus heros, were infested into each well.
# A pesticidal composition formulated in a 10% acetone solution with 0.025% non-ionic surfactant, TWEEN® 20 were tested against brown stink bugs, Euschistus heros, according to the procedure described in example 8A.
# [2] = system: plant bugs, Lygus hesperus; assay: Bean piece dip bioassay against Western plant bugs; conditions: single active
# Procedure: as §1, with “Western plant bugs, Lygus hesperus,” for “brown stink bug, Euschistus heros,”
# [3] = system: Western flower thrips, Frankliniella occidentalis; assay: Cotton leaf punch dip bioassay against Western flower thrips; conditions: single active
# Procedure: (§2) The active compositions were formulated in a 10% acetone solution with 0.025% non-ionic surfactant, TWEEN® 20. Cotton leaf punches were used for bioassays. Two cotton leaf punches were placed in each solution and left there for 10 minutes. Leaves were taken out of the solution, placed on a piece of filter paper in separated Petri dishes, and air dried. Each leaf disc was considered a repetition. Five nymphs of Western flower thrips, Frankliniella occidentalis, were infested per repetition.
# as §2, with “compounds” for “compositions”
# [4] = system: diamondback moth, Plutella xylostella; assay: Cabbage plant track-sprayer bioassay against diamondback moth; conditions: single active, 0.0025 weight %, second instar
# Procedure: A pesticidal composition was prepared by thoroughly mixing about 0.04 weight % of N-(3-chloro-1-(pyridin-3-yl)-1H-pyrazol-4-yl)-N-ethyl-3-((3,3,3-trifluoropropyl)sulfinyl) propanamide (hereinafter “compound II”) with about 0.000156 weight % of chlorpyrifos.
# The bioassays were performed for different active compounds. Cabbage plants with about two to three new-growth-true leaf stage were treated with different active compounds using a track sprayer application at 400 L/Ha spray volume. Three second instar diamondback moth, Plutella xylostella, were infested onto each leaf disc. The percent control of the pesticidal composition against diamondback moth, Plutella xylostella, was determined as the “Observed” action, and compared to those obtained by using about 0.0025 weight % of compound II, and using about 0.0025 weight % of chlorpyrifos alone. The “Colby's Expected Action” was calculated using Colby's equation as discussed previously.
# [5] = 0.04 weight %, third-instar nymphs
SMILES,% Control Four Days After Treatment ([1]; 0.000156 weight %) [%],"% Control Four Days After Treatment ([1]; 0.000156 weight %, listed as chlorpyrifos)",% Control Four Days After Treatment ([1]; 0.000625 weight %) [%],% Control Three Days After Treatment ([2]; 0.0003125 weight %) [%],% Control Three Days After Treatment ([3]; 0.0000049 weight %) [%],"% Control Three Days After Treatment ([3]; 0.0000049 weight %, listed as chlorpyrifos)",% Control Three Days After Treatment ([3]; 0.0000195 weight %) [%],% Control Three Days After Treatment ([3]; 0.0003125 weight %) [%],% Control Three Days After Treatment ([3]; 0.00125 weight %) [%],% Control Three Days After Treatment [4],% Control Three Days After Treatment ([4]; listed as chlorpyrifos),"% Control Three Days After Treatment [2, 5] [%]","% Control Three Days After Treatment ([3]; 0.04 weight %, nymphs) [%]","% Control Three Days After Treatment ([3]; 0.04 weight %, nymphs, listed as compound II)","% Control Four Days After Treatment [1, 5]"
"CCOP(=S)(OCC)Oc1nc(Cl)c(Cl)cc1Cl [Chlorpyrifos, O,O-diethyl O-3,5,6-trichloropyridin-2-yl phosphorothioate]",0,no activity,92,50,0,no activity,20,70,80,0%,substantially no pesticidal activity,–,–,–,–
"CCN(C(=O)CC[S+]([O-])CCC(F)(F)F)c1cn(-c2cccnc2)nc1Cl (centres unmarked) [Compound II, N-(3-chloro-1-(pyridin-3-yl)-1H-pyrazol-4-yl)-N-ethyl-3-((3,3,3-trifluoropropyl)sulfinyl)propanamide]",–,–,–,–,–,–,–,–,–,substantially no pesticidal activity,–,0,0,no activity,–
"CCN(C(=O)CCSCCC(F)(F)F)c1cn(-c2cccnc2)nc1Cl [Compound I, N-(3-chloro-1-(pyridin-3-yl)-1H-pyrazol-4-yl)-N-ethyl-3-((3,3,3-trifluoropropyl)thio)propanamide]",–,–,–,–,–,–,–,–,–,–,–,–,20,–,no activity
